# Results reported in EP1220852B1, “SUBSTITUTED DIAZEPANS” (Novartis AG, priority 1999, dated 2001).
# pIC50: −log10 of the molar value.
# Legend:
# LFA-1/ICAM-1 = molecular target: T1, LFA-1/ICAM-1 (Homo sapiens, UniProt P05107+P20701); experiment: Cell free assay: binding of soluble human ICAM-1 to immobilized human LFA-1
# T1 construct: endogenous in cells; host or cells: LFA-1: endogenous protein purified from JY cells (human lymphoblastoid B cell line); ICAM-1-Cκ fusion: made in house with the baculovirus system
# T1 sequence (P20701 26-1170): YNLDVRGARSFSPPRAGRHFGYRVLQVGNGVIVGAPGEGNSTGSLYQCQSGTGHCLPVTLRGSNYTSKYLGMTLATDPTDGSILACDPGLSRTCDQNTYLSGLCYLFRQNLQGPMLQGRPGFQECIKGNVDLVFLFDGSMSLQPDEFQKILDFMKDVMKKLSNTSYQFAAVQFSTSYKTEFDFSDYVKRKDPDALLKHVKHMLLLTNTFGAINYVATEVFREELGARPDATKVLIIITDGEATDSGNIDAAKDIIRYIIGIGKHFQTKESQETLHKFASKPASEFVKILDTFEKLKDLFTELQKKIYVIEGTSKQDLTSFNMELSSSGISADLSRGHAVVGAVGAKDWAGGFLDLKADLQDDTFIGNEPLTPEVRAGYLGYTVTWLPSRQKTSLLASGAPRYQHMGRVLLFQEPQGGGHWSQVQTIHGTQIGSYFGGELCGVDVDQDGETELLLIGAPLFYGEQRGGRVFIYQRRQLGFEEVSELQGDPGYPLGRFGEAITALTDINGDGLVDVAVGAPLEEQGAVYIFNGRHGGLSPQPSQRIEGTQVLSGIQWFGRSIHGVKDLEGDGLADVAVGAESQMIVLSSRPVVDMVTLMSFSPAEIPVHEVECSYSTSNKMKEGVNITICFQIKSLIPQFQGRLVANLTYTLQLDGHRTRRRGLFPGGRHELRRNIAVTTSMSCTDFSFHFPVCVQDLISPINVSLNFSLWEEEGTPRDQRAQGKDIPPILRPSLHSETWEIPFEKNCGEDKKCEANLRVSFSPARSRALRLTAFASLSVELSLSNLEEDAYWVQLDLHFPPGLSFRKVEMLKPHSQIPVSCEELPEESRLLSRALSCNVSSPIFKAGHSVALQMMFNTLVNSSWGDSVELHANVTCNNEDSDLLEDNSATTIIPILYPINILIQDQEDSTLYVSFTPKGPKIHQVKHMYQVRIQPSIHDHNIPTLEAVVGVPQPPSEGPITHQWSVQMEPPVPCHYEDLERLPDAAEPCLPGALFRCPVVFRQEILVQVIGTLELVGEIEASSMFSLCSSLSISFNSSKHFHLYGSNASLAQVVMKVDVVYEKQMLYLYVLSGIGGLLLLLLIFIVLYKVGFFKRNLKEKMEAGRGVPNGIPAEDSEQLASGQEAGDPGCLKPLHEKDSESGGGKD
# T1 sequence (P05107 23-769): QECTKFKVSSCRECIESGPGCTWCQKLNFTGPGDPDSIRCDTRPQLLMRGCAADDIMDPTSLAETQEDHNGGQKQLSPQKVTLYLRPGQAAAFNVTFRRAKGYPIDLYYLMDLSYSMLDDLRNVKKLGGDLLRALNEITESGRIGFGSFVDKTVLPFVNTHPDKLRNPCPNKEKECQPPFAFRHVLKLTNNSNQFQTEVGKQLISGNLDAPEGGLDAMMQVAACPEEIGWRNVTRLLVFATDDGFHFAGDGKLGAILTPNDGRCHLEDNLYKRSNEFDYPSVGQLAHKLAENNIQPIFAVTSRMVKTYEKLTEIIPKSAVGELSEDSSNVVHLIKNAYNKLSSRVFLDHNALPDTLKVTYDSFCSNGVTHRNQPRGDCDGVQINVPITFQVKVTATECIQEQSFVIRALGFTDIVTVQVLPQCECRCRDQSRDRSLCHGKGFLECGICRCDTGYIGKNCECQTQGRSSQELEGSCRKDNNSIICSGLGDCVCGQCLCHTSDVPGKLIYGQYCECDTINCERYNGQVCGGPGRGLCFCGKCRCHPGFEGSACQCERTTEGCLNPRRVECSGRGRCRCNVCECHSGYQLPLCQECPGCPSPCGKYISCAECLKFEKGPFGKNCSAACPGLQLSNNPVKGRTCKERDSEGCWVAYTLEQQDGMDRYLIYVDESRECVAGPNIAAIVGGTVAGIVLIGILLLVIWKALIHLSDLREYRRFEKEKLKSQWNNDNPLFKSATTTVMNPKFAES
# Protocol: A. In vitro: Cell Free Assay
# The assay measures the binding of soluble human ICAM-1 to immobilized human LFA-1. LFA-1 is purified from JY cells, a human lymphoblastoid B cell-line, by immunoaffinity chromatography as described by Dustin et a/. […] ICAM-1 mouse Cκ fusion protein (ICAM-1) is produced using the baculovirus system as described by Weitz-Schmidt et al. (Anal. Biochem.238,184-190, 1996).
# Purified LFA-1 is diluted 1:20 in phosphate buffered saline (PBS) containing 2 mM MgCl2, pH 7.4 and coated onto microtitre plates (Nunc) at 37°C for 3h. Plates are blocked with 1% heat-treated BSA in PBS for 2 hours at 37°C followed by a washing step using PBS, 2mM MgCl2, 1% fetal calf serum, pH 7.4 (assay buffer). Compounds dissolved at 10 mM in DMSO are diluted in assay buffer and added to the plates. Biotinylated recombinant ICAM-1 in assay buffer (6 µg/ml) is added and allowed to bind at 37°C for one hour. After incubation, wells are washed with assay buffer. Streptavidin-peroxidase diluted 1:5000 in assay buffer is added and incubated for 45 min at 37 °C. Plates are then washed with assay buffer and 2.2'-azino-bis(3-ethylbenzothiazoiine-6 sulfonic acid) diammonium salt substrate solution is added to each well. The reaction is stopped after 20 min and bound ICAM-1 is determined by measuring the optical density at 405 nm in a microplate reader.
# [1] = tested on: allergic contact dermatitis; experiment: Allergic contact dermatitis (ACD), oxazolone-induced, pinnal weight; type: in vivo, female NMRI mice; settings: pinnal weight 24 h after challenge
# Protocol: ii) Allergic Contact Dermatitis (ACD)
# Groups of 8 female NMRI mice are sensitized on the shaved abdomen with 50 µl of oxazolone (Sigma, 2% in acetone) and challenged with 10 µl of 0.2 or 2.0% oxazolone on the inner surface of the right ear 7 days later. The low concentration of oxazolone for induction of the elicitation phase is used for testing compounds on […] activity whereas the high concentration is applied for […] testing. The unchallenged left ears serve as normal controls and dermatitis is evaluated from the individual differences in pinnal weight, which is taken as a measure of increase in inflammatory swelling 24 h after the challenge. Dermatitis is evaluated in test- and for comparison in control groups. The test groups are treated with the test compounds either orally (twice, 2 h and immediately before challenge), subcutaneously (immediately before challenge) or topically (30 min after challenge at the site of elicitation of the ACD); the controls are treated similarly with the vehicles alone. […] The data of the test- and the vehicle-treated control groups are statistically analysed by ANOVA followed by Dunnet T-test (normal distribution or data) or by H and U-test, respectively. […]
compound,measurement,setting,value
"C[C@@H]1CCN([C@H](Cc2cccc3ccccc23)C(N)=O)C(=O)[C@H](c2ccccc2)N1C(=O)Cc1ccc2ncccc2c1 [Example 3, (R)-2-[(3S,5R)-5-Methyl-2-oxo-3-phenyl-4-(quinolin-6-yl-acetyl)-[1,4]diazepan-1-yl)-3-(naphthalen-1-yl)-propionamide]",pIC50,LFA-1/ICAM-1,7.15
same,inhibiting effect,[1]; administered p.o. at a dose of 2 x 3 mg/kg,40%
same,inhibiting effect,[1]; applied topically at a dose of 10 mM,50%
